Biological target: enzyme carbonic anhydrase II (Homo sapiens, UniProt P00918)
Conditions: substance as DNA conjugate within the DEL; primer pairs 1a/1b (whole library), 2a/2b (CBS), 3a/3b (Theo); small ΔCq reflects large enrichment

enrichment after selection (from ΔCq, difference in qPCR cycle before and after selection): not enriched
Structure (SMILES): Cn1cnc2c1c(=O)[nH]c(=O)n2C [Theo, theobromine]

Reference: patent US20200040326A1, “METHOD FOR PROVIDING A DNA-ENCODED LIBRARY, DNA-ENCODED LIBRARY AND METHOD OF DECODING A DNA-ENCODED LIBRARY” (TU Dresden, priority 2018, published 2020)
